Test results taken from patent US20230414599A1, “NICOTINAMIDE, NICOTINAMIDE PRECURSORS AND NICOTINAMIDE METABOLITES AND COMPOSITIONS THEREOF FOR REDUCING THE TIME TO RESOLUTION OF SYMPTOMS IN PATIENTS WITH COVID-19 AND OTHER VIRAL INFECTIONS” (CONARIS RESEARCH INSTITUTE AG, priority 2020, published 2023).

Test system: COVID-19
Test: Pilot phase of the COVit-1 dietary intervention trial (n = 16 outpatients)
Assay type: in vivo
[1] = 1,000 mg/day immediate-release, n = 8, up to 21 days after positive SARS-CoV-2 test
[2] = 1,000 mg/day, n = 8, up to 21 days after positive test
[3] = only patients with symptoms persisting at week 4 queried, n = 3

Structure (SMILES): NC(=O)c1cccnc1 [Nicotinamide, nicotinamide]
- Proportion of subjects still suffering from at least one COVID-19 symptom at or before day 21 after first testing positive (1,000 mg nicotinamide per day for 28 days, n = 8): 50%
- Patients with anorexia/loss of appetite at week 2 [1]: 0
- Patients with arthralgia at week 2 [1]: 0
- Patients with chest pain at week 2 [1]: 0
- Patients with cough at week 2 [1]: 2
- Patients with diarrhoea at week 2 [1]: 1
- Patients with dyspnoea/shortness of breath at week 2 [1]: 2
- Patients with fatigue at week 2 [1]: 2
- Patients with fever (total) at week 2 [1]: 1
- Patients with fever <38° C. at week 2 [1]: 1
- Patients with fever >38° C. at week 2 [1]: 1
- Patients with headache at week 2 [1]: 1
- Patients with impaired sense of smell at week 2 [1]: 1
- Patients with impaired sense of taste at week 2 [1]: 1
- Patients with myalgia at week 2 [1]: 0
- Patients with reduced physical performance at week 2 [1]: 2
- Patients with rhinorrhoea at week 2 [1]: 1
- Patients with sore throat/pharyngalgia at week 2 [1]: 0
- Patients with sputum production at week 2 [1]: 1
- Patients with vomiting at week 2 [1]: 0
- Patients requiring hospitalisation before week 2 (1,000 mg/day, n = 8): no patient
- Patients with persisting symptoms at week 4 (1,000 mg/day, n = 8): 3
- Symptom-free patients at week 4 (1,000 mg/day, n = 8): 5
- Patients with persisting symptoms at week 2 [2]: 4
- Symptom-free patients at week 2 [2]: 4
- Patients with persisting symptoms at week 6 [3]: 2
- Symptom-free patients at week 6 [3]: 1
